Row | melting point [°C] | Compound
1 | 202 to 204 | CNC(=O)N1CCC(CN2CCC(NC(=O)c3cc(Cl)c(N)cc3OC)CC2)CC1
2 | 148 to 153 | CCCO[C@@H]1C[C@@H](C(=O)O)N(C(C)=O)C1
3 | 219 to 220 | O=c1ccc2cc(-c3ccccc3)ccc2n1O
4 | 132 to 135 | N#CCC(=O)NNC(=O)Nc1ccsc1CC(=O)Oc1ccc([N+](=O)[O-])cc1
5 | 129 to 132 | CCSc1sc(C(=O)N2CCCC2)c2c1C(=O)CC(C)(C)C2
6 | 104 to 106 | COCCCNC(=O)c1cc(Br)c(OCc2ccccc2)cc1OCc1ccccc1
7 | 70.3 | O=C(O)CCCCO/N=C(/c1cccnc1)c1cccc(C(F)(F)F)c1
8 | 152 to 153 | COc1ccccc1N=Nc1ncc[nH]1
9 | 117 to 119 | OCC(CO)Oc1cc(-c2ccccc2)on1
10 | 133 to 141 | COCC1CN(c2ccc3cc(OCCS(C)=O)ccc3c2)C(=O)O1 (configuration not stated)
11 | 262 to 264 | COc1ccc(Cl)cc1C1(F)C(=O)Nc2cc(C(F)(F)F)cc(C(F)(F)F)c21 (configuration not stated)
12 | 134 to 136 | C=C1CCC2C3CCc4cc(O)ccc4C3CCC12C (configuration not stated)
13 | 68 | COC(=O)c1cncs1
14 | 155 to 156 | CCC(NC(=NC#N)Nc1cccnc1)c1ccccc1 (configuration not stated)
15 | 220 to 222 | Nc1ccc(S(=O)(=O)Nc2cc(Br)nc(Br)c2)cc1
16 | 136 to 138 | Cc1ccc2c(c1)Sc1ccc(Cl)cc1CC2N1CCN(C)CC1 (configuration not stated)
17 | 35 to 40 | CCCCCCCCCCCCCCCCOC(=O)C(C)Nc1cccc(O)c1 (configuration not stated)
18 | 148 | CCCCNC(=O)c1nc(-c2ccccc2)c(-c2ccc(=O)n(C(C)C)n2)s1
19 | 140 to 142 | CCCCOc1nc2ncnn2c2c1cnc1c2cnn1CC
20 | 144 to 146 | CC(C)c1ccc(C2(O)Cc3ccccc3C2=O)c(O)c1 (configuration not stated)
21 | 125 to 126 | Cc1ccc(-c2cc(F)c(F)cc2-c2ccc(S(C)(=O)=O)cc2)cc1C
22 | 198 to 199 | NS(=O)(=O)c1ccc(-n2cccc2-c2ccc(F)cc2)cc1
23 | 232 to 233 | FC(F)(F)c1ccc2c(c1)NC(=S)c1ccccc1S2
24 | 59 to 61 | COC(=O)CCC(=O)N[C@@H](CO)c1ccccc1

Row | melting point [°C] | Compound
25 | 51 to 55 | ICCC(c1ccccc1)c1ccccc1
26 | 90 to 91 | CNC(=O)CCc1ccc(F)cc1F
27 | 66.5 to 68 | Cc1ccc(C(O)CCN(C)C)s1 (configuration not stated)
28 | 194 | COc1ccccc1C1C2CCC(C2)C12CCC(=S)N2 (configuration not stated)
29 | 80 | COC(=O)C1Cc2c(C)ccc(C)c2N1 (configuration not stated)
30 | 121 to 123 | CNc1ccc(-c2ncn(-c3ccc(OC(F)(F)F)cc3)n2)cc1
31 | 68 to 69 | Cc1c(C)c2c(c(C)c1N)CC(C)(Cc1ccccc1)O2 (configuration not stated)
32 | > 275 | CC(C)C1NC(=O)[C@H](CS)NC1=O (some centres not stated)
33 | 93 to 94 | c1ccc(CSc2nc3cnccn3n2)cc1
34 | 288 to 290 | CC(C)(C)C(C(N)=O)c1cccc(Nc2ncnc3[nH]cc(C(=O)c4ccccc4)c23)c1 (configuration not stated)
35 | 158 to 160 | O=C(NCc1ccco1)Nc1cc(N2CC(c3ccccc3)CC2=O)ccn1 (configuration not stated)
36 | 132 to 135 | Cn1ncc(C(=O)c2ccc(S(C)(=O)=O)c(C3=NC(C)(C)CO3)c2Cl)c1O
37 | 116 to 119 | Cc1cn(C(C)(C)C(=O)Nc2ccccc2)nc1-c1ccccc1
38 | 126 to 128 | OCC1C=CC(n2c(Br)nc3cc(Cl)c(Cl)cc32)C1 (configuration not stated)
39 | 130 to 131 | O=C1NCC(Cc2ccccc2Br)O1 (configuration not stated)
40 | 60 to 79 | CCOc1ccccc1Nc1nc(Nc2cc3c(cc2OC)CCN(CC(=O)N(C)C)CC3)ncc1Cl
41 | 212 to 214 | CCOCc1nc2c(N)nc3ccccc3c2n1CC1(O)CCOCC1
42 | 175 to 176 | CC(=NC(C#N)=C(N)C#N)c1ccco1
43 | 147 to 148 | CC(C)(C)c1nc2cc(N3CCCCC3)c([N+](=O)[O-])cc2s1
44 | 130 to 131 | CCN(C(=O)OC)c1cn2cc(Sc3ccccc3)ccc2n1
45 | 81 to 82 | CC(C)c1nn(-c2ccc(C(F)(F)F)cn2)cc1CCCCOc1cccc(OC(C)(C)C(=O)O)c1
46 | 108 to 110 | CCN(CC)c1ccc(-n2c(C(F)(F)F)nn(C)c2=S)c(Cl)c1
47 | 116 to 118 | CN(C)C=C1CCc2ccn(S(=O)(=O)c3ccccc3)c2C1=O
48 | 139 to 141 | CC(C)(C)C(O)(C=Cc1ccc(Cl)cc1)n1cncn1 (configuration not stated)

Row | melting point [°C] | Compound
49 | 79 to 80 | Cc1ccccc1N=NC1=NCCS1
50 | 35 to 37 | CCOCCOc1ccc(OCc2ccccc2)cc1
51 | 74 to 79 | COc1ccc(-n2nnnc2C(F)(F)F)c(OC)c1CO
52 | 55 | COC(=O)c1cc(C(=O)c2ncc3ccc(N(C)C(=O)OC(C)(C)C)cn23)ccc1[N+](=O)[O-]
53 | 99 to 101 | CN1CCC(Oc2ccccc2)(c2ccccc2)CC1
54 | 194 to 195 | CC(=O)N1CCN=C1Nc1cc(C)nn1-c1cccc2ccccc12
55 | 70.5 to 71 | CC(C)(C)C(=O)Nc1ccc(Cl)cc1F
56 | 117 to 118 | CCCCc1nc2ccccc2n1Cc1ccc(-c2ccccc2C=O)cc1
57 | 249 to 250 | CC(C)CCN1C(=O)C(NC(=O)Nc2ccccc2)C(=O)Nc2ccccc21 (configuration not stated)
58 | 57 to 61 | ClCc1cnc(SCc2ccccc2)s1
59 | 88 to 89 | OC1CCN(CCCc2noc3cc(F)ccc23)CC1
60 | 305 to 306 | O=C(O)Cn1c(=O)c(=O)[nH]c2ccc([N+](=O)[O-])cc21
61 | 110 to 112 | CC(=O)NC1CCN(c2cccc(Sc3ccccc3)n2)CC1
62 | 143 to 148 | CN1C(=O)CC[C@]2(C)c3ccc(-c4ccc(F)c(F)c4)cc3CC[C@@H]12
63 | 147 to 149 | Nc1nc(=O)n([C@@H]2CC[C@H](CO)O2)cc1F
64 | 114 | COc1ccc(-c2cc(C(=O)Nc3ccc(CCN(C)Cc4ccc(OC)c(OC)c4)cc3)c3ccccc3n2)cc1
65 | 96 | CCCCN(CCCC)CCCCOc1ccc(S(=O)(=O)c2c(C(C)C)cn3ccccc23)cc1
66 | 189 to 196 | Fc1c(F)c(F)c(CSc2nc3ccccc3[nH]2)c(F)c1F
67 | 82 to 83 | CC(C)(C)OC(=O)NS(=O)(=O)N1CCC(F)(F)CC1
68 | 136 | COc1ccc2c(c1Cl)Sc1ccccc1N2C
69 | 106 to 110 | CS(=O)(=O)N(Cc1cccnc1)c1cccc(C(F)(F)F)c1
70 | 139 to 141 | CC(Oc1ccc([N+](=O)[O-])cc1)C(=O)O (configuration not stated)
71 | 142 to 145 | OCc1ccc(C2CCCc3cncn32)cc1 (configuration not stated)

Row | Compound | melting point [°C]
72 | CCOC(=O)C(F)(F)C(O)(CC)c1cc2n(c(=O)c1CO)Cc1cc3ccccc3nc1-2 (configuration not stated) | 208 to 209
73 | CCCn1cc(C(=O)O)c2ccc(Cl)cc21 | 179 to 180
74 | CN1C(=O)N(C)C(=O)C2(CC=C3C(CCC4=Cc5c(cnn5-c5ccc(F)cc5)CC43C)O2)C1=O (configuration not stated) | 188 to 189
75 | CC#Cc1c(C#N)nn(-c2c(Cl)cc(C(F)(F)F)cc2Cl)c1N | 226 to 228
76 | O=C1O[C@@H]2C[C@@]1(O)c1cc(Cc3ccccc3)sc1[C@H]2O | 116 to 118
77 | CCCc1c(C(=O)C(C)C)c2ccc(C(=O)O)cc2n1Cc1ccccc1C#N | 214 to 215
